Experimental data reported in article PMC10011747, “Targeting androgen receptor and the variants by an orally bioavailable Proteolysis Targeting Chimeras compound in castration resistant prostate cancer” (eBioMedicine, 2023).

How the values were obtained:
VCaP cells = test: alamarBlue cell viability, VCaP; format: cell-based; conditions: Homo sapiens, 168 h, 7 days treatment, normal hormone condition
Procedure: (§1) Cells were seeded in triplicate in 96-well plates 1 day prior to drug treatment for all assays. For viability test and IC50 assessment, the alamarBlue™ Cell Viability Reagent (Thermo Fisher Scientific) was added to cells 7 days after PROTAC treatment, followed by fluorescence detection as the manufacturer instructed. The IC50 was calculated by dose-inhibition regression. For proliferation monitoring, 2, 4, 6 and 8 days after PROTAC treatment (day 0), viable cells were detected by MTT Cell Proliferation Kit I (Sigma–Aldrich) according to the manufacturer's instructions. Cellular caspase activity was measured by Caspase-Glo 3/7 Assay System (Promega) 1 or 2 days after the drug treatment.

[1] = In vitro stability in plasma; format: in vitro ADME; conditions: mouse, BALB/c mice plasma, 37 °C, read-out: Plasma stability T1/2
Procedure: The in vitro stability of the PROTAC compounds was performed in BALB/C (BALB/cAnNCrlBltw) mice plasma. The reactions were initiated by adding 10 μM PROTAC compounds to 0.5 mL of pre-warmed plasma solution. The assays were performed in Thermomixer at 37 °C. During the incubation, 20 μL samples were taken at 0, 30, 60, 120, and 240 min time points, and added to 120 μL of acetonitrile to deproteinize the plasma. After 10 min of centrifugation at 14,000 rpm, the supernatants were collected for subsequent HPLC-UV analysis (Waters 1525 Binary and 2707 Autosampler).

[2] = Metabolic stability in liver microsomes; format: in vitro ADME; conditions: pooled liver microsomes, pH 7.4, mouse CD-1 liver microsome 0.8 mg/mL, read-out: MLM stability T1/2
Procedure: The mouse CD-1 pooled liver microsome (Corning Product ID: 452701, Lot: 0010003) was used to test compound stability. The reaction was carried out in 100 mM, pH 7.4 phosphate buffer containing microsome (0.8 mg/mL), NADP^+ (1.3 mM), glucose-6-phosphate (3.3 mM), glucose-6-phosphate dehydrogenase (0.4 U/mL), magnesium chloride (3.3 mM) and the test article (1 μM) with 1% (v/v) final concentration of DMSO. The reaction was incubated at 37 °C with shaking. At 0, 10, 20, and 30 min time points, 20 μL of the reaction mixture was taken and quenched immediately with 120 μL acetonitrile. The quenched sample were centrifuged, and the supernatant was then analyzed by LC-MS/MS (ABI4000Q-TRAP). 1 μM warfarin and 1 μM verapamil with same reaction conditions was used as negative and positive control, respectively.

caspase 3/7 = test: Caspase-Glo 3/7 activity; format: cell-based, human; conditions: 5 μM LNCaP, 1 μM CWR22Rv1, two days after treatment
Procedure: as §1

CWR22Rv1 xenograft = CWR22Rv1 xenograft efficacy study; format: in vivo
Procedure: Immunodifficient male C.B-17 SCID mice (NOD.CB17-Prkdc^scid/NcrCrlBltw) at 4–6 weeks of age were purchased from BioLASCO Taiwan Co., Ilan, Taiwan. All mice were housed in conventional cages in the AAALAC Full Accreditation (2011) in Industrial Technology Research Institute and were allowed to acclimatize and recover from shipping-related stress for one week prior to the study. The health of the mice was monitored by daily observations. Animals were kept in rooms at temperature of 22–26 °C with 40–70% humidity, positive pressure, 60% air recirculation, ventilation rate 15–20 changes per hour, and a controlled light–dark cycle (12–12 h). The order and location of each animal cage was randomly assigned to minimize potential confounders. CWR22Rv1 cells (5 × 10^6) were suspended in 100 μL of PBS with 30% Matrigel and subcutaneously implanted into the right flank of male C.B-17 SCID mice. Tumors were measured with calipers, and tumor size was calculated as follows: tumor volume (V) = (L × S^2)/2 (L, longest diameter, mm; S, shortest diameter, mm). When mean tumor volume reached 150–200 mm^3, the mice were randomly assigned into indicated groups (n = 5–6/group) and the day of initiating treatments was assigned as day 0. In the study using intraperitoneal (IP) injection, the mice received vehicle control (NMP: Cremophor: PBS = 1:2:7 (v:v:v)), ITRI-90 (10 mg/kg, BID) or ITRI-126 (10 mg/kg, BID) for the indicated days. In the study using oral (PO) gavage, the mice received vehicle control or ITRI-90 (100 mg/kg, BID) for 21 days. Tumor size and body weight of the animals were monitored and recorded two to three times per week. Mice were sacrificed when one of the tumor reached over 1000 mm^3 in size. Tumors were collected and immediately subjected to liquid nitrogen freezing and homogenization. The homogenized tumor samples were stored at −80 °C for subsequent western blotting analysis. The drug antitumor efficacy was presented as percentages of TGI of each tested animal, calculated as follows: [1 − (final tumor volume − initial tumor volume of the treated group)/average of (final tumor volume − initial tumor volume of the vehicle group)] × 100. Body weight of each mouse was also compared to that on the first day of treatment (day 0) and expressed as a percentage of day 0 value. All data points were included for calculation and the values are presented as mean ± SEM. Statistical analysis of the differences between two drug and vehicle treated groups was determined by two-tailed Student's t test. For negative control, same procedures as described above were followed. PC3 cells (5 × 10^6) mixing with 50% matrigel were subcutaneously implanted into both flanks of 8 male C.B-17 SCID mice, followed by random assignment for oral administration of vehicle control or ITRI-90 drug (100 mg/kg, BID) treatment (n = 4/group).

[3] = test system: AR-negative PC3 prostate cancer model; test: PC3 xenograft negative control study; format: in vivo, mouse; conditions: PO 100 mg/kg twice daily
Procedure: Immunodifficient male C.B-17 SCID mice (NOD.CB17-Prkdc^scid/NcrCrlBltw) at 4–6 weeks of age were purchased from BioLASCO Taiwan Co., Ilan, Taiwan. All mice were housed in conventional cages in the AAALAC Full Accreditation (2011) in Industrial Technology Research Institute and were allowed to acclimatize and recover from shipping-related stress for one week prior to the study. The health of the mice was monitored by daily observations. Animals were kept in rooms at temperature of 22–26 °C with 40–70% humidity, positive pressure, 60% air recirculation, ventilation rate 15–20 changes per hour, and a controlled light–dark cycle (12–12 h). […] Tumors were measured with calipers, and tumor size was calculated as follows: tumor volume (V) = (L × S^2)/2 (L, longest diameter, mm; S, shortest diameter, mm). […] Tumor size and body weight of the animals were monitored and recorded two to three times per week. […] The drug antitumor efficacy was presented as percentages of TGI of each tested animal, calculated as follows: [1 − (final tumor volume − initial tumor volume of the treated group)/average of (final tumor volume − initial tumor volume of the vehicle group)] × 100. Body weight of each mouse was also compared to that on the first day of treatment (day 0) and expressed as a percentage of day 0 value. […]
Figure S15. […] (a) CWR22Rv1 and PC3 cell viability was detected upon 7 days treatment of ITRI-90. […]

AR-negative PC3 cells = test: Cell viability, PC3; format: cell-based, human; conditions: 7 days treatment
Procedure: as §1
Figure S15. ITRI-90 is ineffective for AR-n egative PC3 cells. (a) CWR22Rv1 and PC3 cell viability was detected upon 7 days treatment of ITRI-90. (b,c) Antitumor activity of ITRI -90 towards PC3 tumor xenografts.
PC3 tumor xenografts implanted in SCID mice were treated with ITRI-90 orally using 100 mg/kg twice daily dosing. The numbers of tumor in each group is as indicated. (b) Scatter plots of the tumor size. (c) Western blotting of AR and AR -V proteins in the tumors collected at the final time points. CWR22Rv1 xenograft samples from Figure 7i were used as positive control for AR and AR-V expression.
(1 picture or pasted object on this page, not shown here)

SMILES	IC50 (VCaP cells) [µM]	half-life at 10 μM [1] [h]	half-life at 1 μM [2] [h]	caspase 3/7 activity at lower concentrations (caspase 3/7)	tumor growth inhibition (TGI) (CWR22Rv1 xenograft; IP 10 mg/kg twice daily, day 14, SCID mice, no hormone manipulation) [%]	toxicity monitored by animal body weight (CWR22Rv1 xenograft; mouse, in vivo, ip, 10 mg/kg)	toxicity monitored by animal body weight (CWR22Rv1 xenograft; IP 10 mg/kg twice daily)	tumor growth inhibition (TGI) (CWR22Rv1 xenograft; IP 10 mg/kg twice daily, day 12, SCID mice, no hormone manipulation) [%]	toxicity monitored by animal body weight (CWR22Rv1 xenograft; PO 100 mg/kg twice daily, 21 days)	tumor growth inhibition (TGI) (CWR22Rv1 xenograft; PO 100 mg/kg twice daily, day 21, SCID mice, no hormone ablation) [%]	AR-FL and AR-Vs protein levels in tumors (CWR22Rv1 xenograft; PO 100 mg/kg twice daily, final time point, western blot)	antitumor activity towards PC3 tumor xenografts [3]	PC3 cell viability (AR-negative PC3 cells)
Cc1ncsc1-c1ccc(CNC(=O)[C@@H]2C[C@H](O)CN2C(=O)[C@@H](NC(=O)COCCCCCCOc2ccc(C3CCN(C4=Nn5c(nnc5C(F)(F)F)CC4)CC3)cc2)C(C)(C)C)cc1 [ITRI-125, (2S,4S)-1-((S)-3,3-dimethyl-2-(2-(6-(4-(1-(3-(trifluoromethyl)-7,8-dihydro-[1,2,4]triazolo[4,3-b]pyridazin-6-yl)piperidin-4-yl)phenoxy)hexyloxy)acetamido)butanoyl)-4-hydroxy-N-(4-(4-methylthiazol-5-yl)benzyl)pyrrolidine-2-carboxamide]	3.06 ± 0.936	> 4	> 0.5										
O=C1CCC(N2Cc3c(NC(=O)COCCCCOc4ccc(C5CCN(C6=Nn7c(nnc7C(F)(F)F)CC6)CC5)cc4)cccc3C2=O)C(=O)N1 (centres unmarked) [ITRI-126, N-(2-(2,6-dioxopiperidin-3-yl)-1-oxoisoindolin-4-yl)-2-(4-(4-(1-(3-(trifluoromethyl)-7,8-dihydro-[1,2,4]triazolo[4,3-b]pyridazin-6-yl)piperidin-4-yl)phenoxy)butoxy)acetamide]	0.448 ± 0.154			induced strong caspase activity two days after drug treatment	49.8 ± 11.1	without obvious toxicities							
Cc1ncsc1-c1ccc(CNC(=O)[C@@H]2C[C@H](O)CN2C(=O)[C@@H](NC(=O)COCCCCOc2ccc(C3CCN(C4=Nn5c(nnc5C(F)(F)F)CC4)CC3)cc2)C(C)(C)C)cc1 [ITRI-90, (2S,4S)-1-((S)-3,3-dimethyl-2-(2-(4-(4-(1-(3-(trifluoromethyl)-7,8-dihydro-[1,2,4]triazolo[4,3-b]pyridazin-6-yl)piperidin-4-yl)phenoxy)butoxy)acetamido)butanoyl)-4-hydroxy-N-(4-(4-methylthiazol-5-yl)benzyl)pyrrolidine-2-carboxamide]	5.45 ± 1.74	> 4	> 0.5				without obvious toxicities	76.64 ± 11.1	without obvious toxicity	71.73 ± 6.42	reduced	ineffectiveness	ineffective
